Test results taken from PubChem BioAssay (NCI).
“And” between values parts separate entries of the source, which are not always exact repeats. Identical values can stand only once.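 Method: 48-hour compound exposure of cells in 96-well plates, five concentrations, linear interpolation of endpoints. GI50: concentration for 50% inhibition of growth. TGI is the concentration that stops growth completely.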

Legend:
Assay in all cases: NCI anticancer screen, dose series, 48 h
A549 NSCLC = system: A549 NSCLC
HCC-2998 colon = system: HCC-2998 colon
HOP-92 NSCLC = system: HOP-92 NSCLC
RPMI-8226 leukemia = system: RPMI-8226 leukemia
SK-MEL-5 melanoma = system: SK-MEL-5 melanoma
SNB-19 CNS = system: SNB-19 CNS
SR leukemia = system: SR leukemia
T-47D breast = system: T-47D breast
UO-31 renal = system: UO-31 renal
OVCAR-4 ovarian = system: OVCAR-4 ovarian

Row | SMILES | GI50 (A549 NSCLC) | TGI (A549 NSCLC) | GI50 (HCC-2998 colon) | TGI (HCC-2998 colon) | GI50 (HOP-92 NSCLC) | TGI (HOP-92 NSCLC) | GI50 (RPMI-8226 leukemia) | TGI (RPMI-8226 leukemia) | GI50 (SK-MEL-5 melanoma) | TGI (SK-MEL-5 melanoma) | GI50 (SNB-19 CNS) | TGI (SNB-19 CNS) | GI50 (SR leukemia) | TGI (SR leukemia) | GI50 (T-47D breast) | TGI (T-47D breast) | GI50 (UO-31 renal) | TGI (UO-31 renal) | GI50 (OVCAR-4 ovarian) | TGI (OVCAR-4 ovarian)
1 | COc1cc2nc(-c3cnc(N(C)C)nc3)nc(NC3CCN(Cc4ccccc4)CC3)c2cc1OC | 0.351 µM | 1.79 µM | 1.79 µM | 3.25 µM | 1.03 µM | 2.46 µM | 1.22 µM | 3.67 µM | 1.58 µM | 2.95 µM | 1.2 µM | 3.1 µM | 0.273 µM | 0.938 µM | 1.81 µM | 4.14 µM | 1.49 µM | 3.05 µM | – | –
2 | Cc1cc(N2CCCCC2)nc(N(CCCNc2ccnc3cc(Cl)ccc23)Cc2ccco2)n1 | 3.34 µM | 11.2 µM | 1.97 µM | 4.39 µM | 1.38 µM | 3.95 µM | 1.83 µM | 4.46 µM | 1.67 µM | 3.06 µM | 2.93 µM | 13.5 µM | 1.69 µM | 4.71 µM | 1.77 µM | 4.44 µM | 1.17 µM | 2.59 µM | 2.69 µM | 14.3 µM
3 | O=c1c2cccc(Cl)c2sc2c(NCCCNCCO)nc3ccccc3c12 | 1.31 µM | 3.39 µM | 1.62 µM | 3.02 µM | 1.26 µM | 7.82 µM | 2.1 µM | 5.45 µM | 6.5 µM | 21 µM | 5.8 µM | 20 µM | 1.6 µM | 5.97 µM | 2.2 µM | 23 µM | 1.02 µM | 3.95 µM | 5.43 µM | 19.6 µM
4 | Cn1ccnc1C(=O)/C=C/c1ccc(C(=O)Nc2ccc(Cl)cc2)cc1 | 0.951 µM | > 33.3 µM | 0.655 µM | 1.43 µM | 1.14 µM | 27 µM | 0.431 µM | 1.35 µM | 2.35 µM | 7.04 µM | 0.987 µM | > 33.3 µM | 0.255 µM | 1.56 µM | 0.846 µM | > 33.3 µM | 0.905 µM | 4.34 µM | 0.981 µM | > 33.3 µM
5 | CCN(CC)CCCC(C)Nc1cnc(C(=O)Nc2ccc(Cl)c3cccnc23)cn1 (stereo unspecified) | 2.71 µM | 11.8 µM | 1.5 µM | 3.08 µM | 1.18 µM | 2.82 µM | 1.74 µM | 3.92 µM | 1.8 µM | 3.31 µM | 3.37 µM | 13.9 µM | 1.18 µM | 4.12 µM | 1.21 µM | 2.97 µM | 1.48 µM | 2.9 µM | 2.42 µM | 6.99 µM
6 | COc1cc2c3c(n(CCCCOC(=O)C(F)(F)F)c(=O)c2cc1OC)-c1cc2c(cc1C3=O)OCO2 | > 100 µM | > 100 µM | > 100 µM | > 100 µM | > 82.9 µM | > 100 µM | > 20.4 µM | > 100 µM | > 100 µM | > 100 µM | > 100 µM | > 100 µM | 0.589 µM | 13.4 µM | > 100 µM | > 100 µM | > 100 µM | > 100 µM | > 100 µM | > 100 µM
7 | CC(=O)N1N=C2/C(=C/c3ccccc3)CC(C)CC2C1c1ccccc1 (stereo unspecified) | 13.3 µM | 51.5 µM | 8.86 µM | 21.2 µM | 13.9 µM | 31.2 µM | 9.54 µM | 76.1 µM | 11.6 µM | 25.4 µM | 14.5 µM | 30.1 µM | 10.7 µM | 33 µM | 10.7 µM | 34.7 µM | 12.8 µM | 31.1 µM | 10.8 µM | 25.2 µM
8 | O=C1NN(c2ccc(C(=O)O)cc2)C(=O)/C1=C\c1ccc([N+](=O)[O-])o1 | > 100 µM | > 100 µM | > 100 µM | > 100 µM | 29 µM | 74.8 µM | 30.6 µM | 83.8 µM | > 100 µM | > 100 µM | > 100 µM | > 100 µM | 32.9 µM | > 100 µM | 21.4 µM | 50 µM | 59.1 µM | > 100 µM | – | –
9 | CC1=C[C@H]2c3c(c(O)c(O)c4oc5c(C)cccc5c(=O)c34)[C@H](c3cc(O)c(O)c4oc5c(C)cccc5c(=O)c34)[C@H]2C(C)(C)C1 | 1.04 µM | 4.85 µM | 1.45 µM | 3.47 µM | 2.39 µM | 6.69 µM | – | – | 1.43 µM | 2.78 µM | 2.27 µM | 11.2 µM | 0.72 µM | > 100 µM | 2.51 µM | 14.1 µM | 1.23 µM | 2.78 µM | 1.51 µM | 14.7 µM
10 | O=c1cc(-c2cccc(C(F)(F)F)c2)[nH]c2cc3c(cc12)OCO3 | 0.521 µM | 50 µM | 0.493 µM | – | – | 50 µM | – | > 100 µM | 1.27 µM | 4.41 µM | 0.427 µM | 50 µM and 7.58 µM | – | > 100 µM | > 100 µM | > 100 µM | 0.315 µM | – | – | –
11 | CC(=O)N1c2ccccc2C23CCN(C)CC4C(C)OCC(C4CC2=O)C13 (stereo unspecified) | – | > 100 µM | – | > 100 µM | – | > 100 µM | – | – | – | > 100 µM | – | > 100 µM | – | > 100 µM | – | > 100 µM | – | > 100 µM | – | > 100 µM
